Laboratory results taken from patent US20040142853A1, “Stimulation of hair growth by compositions containing peptide copper complexes and minoxidil” (priority 2002, published 2004).

System: cultured hair follicles
Assay: Radioactive cysteine incorporation in cultured hair follicles as a measure of hair growth
Type: cell-based, mice
Experimental: In this system, follicles were dissected from 4 day old mice. Healthy follicles were selected visually and cultured in serum free media supplemented with insulin, transferrin and selenium. The activity of compositions comprising one or more of the test compounds in stimulating hair growth was measured by radioactive cysteine labeling of the newly formed hair proteins and expressed as a percentage of the activity of a control (i.e., no test compounds present).

With “Glycyl-L-Histidyl-L-Lysyl-L-Valyl-L-Phenylalanyl-L-Valine: Copper Complex” the “radioactive cysteine incorporation relative to control (result in words)” value (at the concentrations used (Minoxidil 1 mM, peptide copper complex 10 μM)) was “stimulated radioactive cysteine incorporation above that of the control” and the “% of Cysteine Incorporation of Control (no addition)” value (peptide copper complex 10 μM, follicles from 4 day old mice, serum free media) was 113%.
